This note sets out measurements from PubChem BioAssay AID334 (DTP/NCI, 2004).

The subject of this experiment is CD2F1 mice, intracerebral P388 leukemia, median survival T/C%. Kind of experiment: NCI In Vivo Anticancer Drug Screen. Data for tumor model P388 Leukemia (intracerebral) in CD2F1 (CDF1) mice. As to conditions: endpoint: median survival time, higher = longer survival. The method, then:
The antitumor activity of compounds was measured in mice bearing transplantable tumors. Survival or tumor size were measured and the results are expressed as the measurement made in the treated group (T) divided by the measurement made in the vehicle treated control group (C). The tumor model used in this assay is P388 Leukemia (intracerebral) in CD2F1 (CDF1) mice

Where [1] appears, read: dose: 12.5 mg/kg/injection, schedule: Q01DX009 (ip), vehicle: saline with Tween-80.
[2] abbreviates: dose: 25.0 mg/kg/injection, schedule: Q01DX009 (ip), vehicle: saline with Tween-80.
The mark [3] stands for this setting: dose: 50.0 mg/kg/injection, schedule: Q01DX009 (ip), vehicle: saline with Tween-80.
The mark [4] stands for this setting: dose: 50.0 mg/kg/injection, schedule: Q01DX009 (ip), vehicle: saline.

Structures are written as SMILES. Values joined by “and” are separate entries in the source; they are usually repeats but may differ in a detail not shown here. Equal entries are not always repeated. Toxic doses and inconclusive results are not listed.

Regarding `CN(Cc1cnc2nc(N[Si](C)(C)C)nc(N[Si](C)(C)C)c2n1)c1ccc(C(=O)NC(CCC(=O)O[Si](C)(C)C)C(=O)O[Si](C)(C)C)cc1` (stereo not given), the T/C is, setting by setting: (dose: 0.63 mg/kg/injection, schedule: Q01DX009 (ip), vehicle: olive oil, sesame oil, peanut oil) 110 % of control; (dose: 0.63 mg/kg/injection, schedule: Q01DX009 (ip), vehicle: saline) 90 % of control; (dose: 1.25 mg/kg/injection, schedule: Q01DX009 (ip), vehicle: olive oil, sesame oil, peanut oil) 110 % of control; (dose: 1.25 mg/kg/injection, schedule: Q01DX009 (ip), vehicle: saline) 100 % of control; (dose: 1.9 mg/kg/injection, schedule: Q04DX003 (ip), vehicle: saline) 95 % of control; (dose: 2.5 mg/kg/injection, schedule: Q01DX009 (ip), vehicle: saline) 100 % of control. For the same compound, the T/C (dose: 3.8 mg/kg/injection, schedule: Q04DX003 (ip), vehicle: saline) was 95 % of control; the T/C (dose: 5.0 mg/kg/injection, schedule: Q01DX009 (ip), vehicle: saline) is 95 % of control; the T/C (dose: 15.0 mg/kg/injection, schedule: Q04DX003 (ip), vehicle: saline) is 110 % of control; the T/C (dose: 30.0 mg/kg/injection, schedule: Q04DX003 (ip), vehicle: saline) was 120 % of control; the T/C (dose: 60.0 mg/kg/injection, schedule: Q04DX003 (ip), vehicle: saline) is 115 % of control.

On to `Cc1cc(NC(=O)NCc2ccc(N3C(N)=NC(N)=NC3(C)C)cc2)ccc1S(=O)(=O)F`, for which the T/C runs as follows: under setting [1], 105 % of control; under setting [2], 105 % of control; (dose: 25.0 mg/kg/injection, schedule: Q04DX003 (ip), vehicle: saline with Tween-80) 111 % of control; (dose: 25.0 mg/kg/injection, schedule: Q04DX003 (ip), vehicle: saline) 105 % of control; under setting [3], 97 % of control; (dose: 50.0 mg/kg/injection, schedule: Q04DX003 (ip), vehicle: saline with Tween-80) 101 % of control. The T/C reads like this: (dose: 50.0 mg/kg/injection, schedule: Q04DX003 (ip), vehicle: saline) 100 % of control; (dose: 100.0 mg/kg/injection, schedule: Q04DX003 (ip), vehicle: saline with Tween-80) 90 % of control; (dose: 100.0 mg/kg/injection, schedule: Q04DX003 (ip), vehicle: saline) 111 % of control; (dose: 200.0 mg/kg/injection, schedule: Q04DX003 (ip), vehicle: saline with Tween-80) 116 % of control; (dose: 200.0 mg/kg/injection, schedule: Q04DX003 (ip), vehicle: saline) 111 % of control; (dose: 400.0 mg/kg/injection, schedule: Q04DX003 (ip), vehicle: saline) 105 % of control.

On to `CCC(=O)O[C@H]1CC[C@H]2[C@@H]3CCC4=CC(=O)CC[C@]4(C)[C@H]3CC[C@]12C`, for which the T/C by setting is: (dose: 8.0 mg/kg/injection, schedule: Q01DX009 (ip), vehicle: saline with Tween-80) 105 % of control; (dose: 8.0 mg/kg/injection, schedule: Q01DX009 (ip), vehicle: saline) 178 % of control; (dose: 16.0 mg/kg/injection, schedule: Q01DX009 (ip), vehicle: saline with Tween-80) 108 % of control; (dose: 16.0 mg/kg/injection, schedule: Q01DX009 (ip), vehicle: saline) 106 % of control; (dose: 32.0 mg/kg/injection, schedule: Q01DX009 (ip), vehicle: saline with Tween-80) 105 % of control; (dose: 32.0 mg/kg/injection, schedule: Q01DX009 (ip), vehicle: saline) 99 % of control. Moreover, the T/C was 117 % of control (dose: 64.0 mg/kg/injection, schedule: Q01DX009 (ip), vehicle: saline with Tween-80); 100 % of control (dose: 64.0 mg/kg/injection, schedule: Q01DX009 (ip), vehicle: saline); 100 % of control (dose: 128.0 mg/kg/injection, schedule: Q01DX009 (ip), vehicle: saline with Tween-80); 100 % of control (dose: 128.0 mg/kg/injection, schedule: Q01DX009 (ip), vehicle: saline); 107 % of control (dose: 256.0 mg/kg/injection, schedule: Q01DX009 (ip), vehicle: saline with Tween-80); 100 % of control (dose: 256.0 mg/kg/injection, schedule: Q01DX009 (ip), vehicle: saline). Besides, the T/C was 106 % of control (dose: 512.0 mg/kg/injection, schedule: Q01DX009 (ip), vehicle: saline with Tween-80) and 109 % of control (dose: 512.0 mg/kg/injection, schedule: Q01DX009 (ip), vehicle: saline).

On to `NC(=S)N/N=C/c1ccc(O)cn1`, for which the T/C runs as follows: (dose: 12.0 mg/kg/injection, schedule: Q01DX005 (ip), vehicle: saline) 99 % of control and 100 % of control; (dose: 24.0 mg/kg/injection, schedule: Q01DX005 (ip), vehicle: saline) 96 % of control and 97 % of control; (dose: 48.0 mg/kg/injection, schedule: Q01DX005 (ip), vehicle: saline) 101 % of control and 106 % of control; (dose: 96.0 mg/kg/injection, schedule: Q01DX005 (ip), vehicle: saline) 93 % of control and 103 % of control.

On to `COS(C)(=O)=O`, for which the T/C runs as follows: (dose: 32.0 mg/kg/injection, schedule: Q01DX005 (ip), vehicle: saline) 107 % of control and 108 % of control; (dose: 64.0 mg/kg/injection, schedule: Q01DX005 (ip), vehicle: saline) 97 % of control and 106 % of control; (dose: 128.0 mg/kg/injection, schedule: Q01DX005 (ip), vehicle: saline) 104 % of control and 105 % of control.

Take `CN(CO)c1nc(N(C)CO)nc(N(C)CO)n1`: the T/C is 98 % of control (dose: 3.12 mg/kg/injection, schedule: Q01DX009 (ip), vehicle: saline with Tween-80); 106 % of control (dose: 6.25 mg/kg/injection, schedule: Q01DX009 (ip), vehicle: saline with Tween-80); 100 % of control and 101 % of control under setting [1]; 116 % of control and 104 % of control under setting [2]; 115 % of control and 93 % of control (dose: 50.0 mg/kg/injection, schedule: Q01DX009 (ip), vehicle: Klucel (hydroxypropylcellulose) (HPC)); 103 % of control and 106 % of control under setting [3]. Further, the T/C (dose: 100.0 mg/kg/injection, schedule: Q01DX009 (ip), vehicle: Klucel (hydroxypropylcellulose) (HPC)) was 121 % of control and 112 % of control.

On to `CC(=O)O[C@]1(C(C)=O)CC[C@H]2[C@@H]3C[C@H](C)C4=CC(=O)CC[C@]4(C)[C@H]3CC[C@@]21C`, for which the T/C was 92 % of control and 104 % of control (dose: 8.0 mg/kg/injection, schedule: Q01DX009 (ip), vehicle: Klucel (hydroxypropylcellulose) (HPC)); 100 % of control and 102 % of control (dose: 16.0 mg/kg/injection, schedule: Q01DX009 (ip), vehicle: Klucel (hydroxypropylcellulose) (HPC)); 93 % of control and 103 % of control (dose: 32.0 mg/kg/injection, schedule: Q01DX009 (ip), vehicle: Klucel (hydroxypropylcellulose) (HPC)); 90 % of control and 99 % of control (dose: 64.0 mg/kg/injection, schedule: Q01DX009 (ip), vehicle: Klucel (hydroxypropylcellulose) (HPC)); 90 % of control and 101 % of control (dose: 128.0 mg/kg/injection, schedule: Q01DX009 (ip), vehicle: Klucel (hydroxypropylcellulose) (HPC)); 96 % of control and 103 % of control (dose: 256.0 mg/kg/injection, schedule: Q01DX009 (ip), vehicle: Klucel (hydroxypropylcellulose) (HPC)).

Take `CCCCCCCC/C=C/CCCCCCCC(=O)Nc1ccn(C2OC(CO)C(O)C2O)c(=O)n1` (stereo not given): the T/C is 155 % of control (dose: 12.5 mg/kg/injection, schedule: Q01DX009 (ip), vehicle: saline); 197 % of control (dose: 25.0 mg/kg/injection, schedule: Q01DX009 (ip), vehicle: saline); 262 % of control under setting [4].

In the case of `CCN(CC)CCCC(C)Nc1c2ccc(Cl)cc2nc2ccc(OC)cc12` (stereo not given), the T/C is, setting by setting: (dose: 8.0 mg/kg/injection, schedule: Q01DX009 (ip), vehicle: suspension in saline) 96 % of control; (dose: 16.0 mg/kg/injection, schedule: Q01DX009 (ip), vehicle: suspension in saline) 96 % of control; (dose: 32.0 mg/kg/injection, schedule: Q01DX009 (ip), vehicle: suspension in saline) 100 % of control; (dose: 64.0 mg/kg/injection, schedule: Q01DX009 (ip), vehicle: suspension in saline) 88 % of control.

On to `Nc1ncnc2c1ncn2C1OC(COP(=O)(O)O)C(O)C1O` (stereo not given), for which the T/C reads like this: under setting [4], 97 % of control; (dose: 1600.0 mg/kg/injection, schedule: Q01DX009 (ip), vehicle: saline) 100 % of control and 104 % of control.

For `CS(C)=O`, the T/C by setting is: (dose: 1000.0 mg/kg/injection, schedule: Q01DX005 (ip), vehicle: saline) 104 % of control and 107 % of control; (dose: 2000.0 mg/kg/injection, schedule: Q01DX005 (ip), vehicle: saline) 100 % of control and 104 % of control; (dose: 4000.0 mg/kg/injection, schedule: Q01DX005 (ip), vehicle: saline) 100 % of control and 105 % of control; (dose: 8000.0 mg/kg/injection, schedule: Q01DX005 (ip), vehicle: saline) 105 % of control and 108 % of control.
